Measurements taken from ChEMBL document CHEMBL1150557, “Molecular design of novel PGI2 agonists without PG skeleton. I” (Bioorg Med Chem Lett, 1995).

Species on record: Homo sapiens
Assay: Evaluated for inhibition of 4 uM ADP-induced human platelet aggregation
Type: functional, organism-based

For `O=C(O)COc1cccc2c1CCC(C/C=N/OC(c1ccccc1)c1ccccc1)C2` (configuration not stated), which IC50 is on record?
The IC50 was 1100 nM.

For `O=C(O)COc1cccc2c1CCCC2CC/C=N/OC(c1ccccc1)c1ccccc1` (configuration not stated), which IC50 is on record?
The IC50 was 2100 nM.

Molecular target: Prostacyclin receptor (Homo sapiens, UniProt P43119)
Sequence (P43119 whole entry): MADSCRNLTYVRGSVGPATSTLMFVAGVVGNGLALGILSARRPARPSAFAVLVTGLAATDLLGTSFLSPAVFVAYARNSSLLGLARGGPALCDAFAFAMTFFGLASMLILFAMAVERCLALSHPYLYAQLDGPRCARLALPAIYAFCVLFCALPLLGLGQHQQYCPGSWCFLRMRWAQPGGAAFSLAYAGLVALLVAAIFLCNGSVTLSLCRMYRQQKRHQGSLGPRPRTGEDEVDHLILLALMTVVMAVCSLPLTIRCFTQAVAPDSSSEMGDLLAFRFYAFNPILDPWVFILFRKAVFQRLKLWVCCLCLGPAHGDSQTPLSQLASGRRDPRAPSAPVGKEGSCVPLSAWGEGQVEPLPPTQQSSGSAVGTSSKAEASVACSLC
Assay: Prostaglandin I2 receptor binding by displacement of [3H]iloprost from human platelets

For `O=C(O)COc1cccc2c1CCC(C/C=N/OC(c1ccccc1)c1ccccc1)C2` (configuration not stated), which IC50 is on record?
The IC50 was 0.65 µM.

For `O=C(O)COc1cccc(CCC/C=N/OC(c2ccccc2)c2ccccc2)c1`, which IC50 is on record?
Its IC50 is 3.9 µM.

For `O=C(O)COc1cccc2c1CCC(C/C=C/CC(c1ccccc1)c1ccccc1)C2` (configuration not stated), which IC50 is on record?
The IC50 was 3.1 µM.

Which IC50 does the source give for `CCCCCC(O)/C=C/CC1CCc2c(cccc2OCC(=O)O)C1` (configuration not stated) here?
The IC50 was 7.8 µM.

For `CCCCCC(O)/C=C/CCCc1cccc(OCC(=O)O)c1` (configuration not stated), which IC50 is on record?
The IC50 was 23 µM.

How did the IC50 turn out when `O=C(O)COc1cccc2c1CCC(C/C=C\CC(c1ccccc1)c1ccccc1)C2` (configuration not stated) was run?
The IC50 was 3 µM.

For `O=C(O)COc1cccc2c1CCC(C/C=C/C(O)Cc1ccccc1)C2` (configuration not stated), which IC50 is on record?
The IC50 was 4.9 µM.

How did the IC50 turn out when `O=C(O)COc1cccc2c1CCCC2CC/C=N/OC(c1ccccc1)c1ccccc1` (configuration not stated) was run?
Its IC50 is 0.6 µM.

`O=C(O)COc1cccc2c1CCC(C/C=C/CCc1ccccc1)C2` (configuration not stated) was tested. Which IC50 did it give?
Its IC50 is 5.3 µM.

How did the IC50 turn out when `CCCCCC(O)/C=C/CCC1CCCc2c(OCC(=O)O)cccc21` (configuration not stated) was run?
The IC50 was 9.6 µM.
